From paper PMC5290327, “SC83288 is a clinical development candidate for the treatment of severe malaria” (Nature Communications, 2017)

Tests used:
Experiment in all cases: KINOMEscan
Format in all cases: binding
Conditions in all cases: read-out: Remaining enzyme activity
KIT(V559D) = molecular target: T1, KIT(V559D) (Homo sapiens, UniProt P10721, V559D)
T1 construct: purchased Ambit (DiscoverX) KINOMEscan; Cerep
Procedure, shortened: (§1)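 qPCR of a DNA tag reports how much kinase stays bound to ligand-coated beads in the presence of 10 μM SC81458, diluted from a DMSO stock. Kinase sources were T7 phage lysates from E. coli or HEK-293-expressed protein tagged with DNA.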

ABL1(E255K) = molecular target: T2, ABL1(E255K) (Homo sapiens, UniProt P00519, E255K)
T2 construct: purchased Ambit (DiscoverX) KINOMEscan; Cerep
Procedure, shortened: as §1

SBK1 = molecular target: T3, SBK1 (Homo sapiens, UniProt Q52WX2)
T3 construct: purchased Ambit (DiscoverX) KINOMEscan; Cerep
Procedure, shortened: as §1

PRKD2 = molecular target: T4, PRKD2 (Homo sapiens, UniProt Q9BZL6)
T4 construct: purchased Ambit (DiscoverX) KINOMEscan; Cerep
Procedure, shortened: as §1

PFTAIRE2 = molecular target: T5, PFTAIRE2 (Homo sapiens, UniProt Q96Q40)
T5 construct: purchased Ambit (DiscoverX) KINOMEscan; Cerep
Procedure, shortened: as §1

JNK1 = molecular target: T6, JNK1 (Homo sapiens, UniProt P45983)
T6 construct: purchased Ambit (DiscoverX) KINOMEscan; Cerep
Procedure, shortened: as §1

CLK2 = molecular target: T7, CLK2 (Homo sapiens, UniProt P49760)
T7 construct: purchased Ambit (DiscoverX) KINOMEscan; Cerep
Procedure, shortened: as §1

DCAMKL3 = molecular target: T8, DCAMKL3 (Homo sapiens, UniProt Q9C098)
T8 construct: purchased Ambit (DiscoverX) KINOMEscan; Cerep
Procedure, shortened: as §1

RIOK3 = molecular target: T9, RIOK3 (Homo sapiens, UniProt O14730)
T9 construct: purchased Ambit (DiscoverX) KINOMEscan; Cerep
Procedure, shortened: as §1

CAMK4 = molecular target: T10, CAMK4 (Homo sapiens, UniProt Q16566)
T10 construct: purchased Ambit (DiscoverX) KINOMEscan; Cerep
Procedure, shortened: as §1

MAST1 = molecular target: T11, MAST1 (Homo sapiens, UniProt Q9Y2H9)
T11 construct: purchased Ambit (DiscoverX) KINOMEscan; Cerep
Procedure, shortened: as §1

STK36 = molecular target: T12, STK36 (Homo sapiens, UniProt Q9NRP7)
T12 construct: purchased Ambit (DiscoverX) KINOMEscan; Cerep
Procedure, shortened: as §1

AAK1 = molecular target: T13, AAK1 (Homo sapiens, UniProt Q2M2I8)
T13 construct: purchased Ambit (DiscoverX) KINOMEscan; Cerep
Procedure, shortened: as §1

CSNK2a1 = molecular target: T14, CSNK2a1 (Homo sapiens, UniProt P68400)
T14 construct: purchased Ambit (DiscoverX) KINOMEscan; Cerep
Procedure, shortened: as §1

FGFR2 = molecular target: T15, FGFR2 (Homo sapiens, UniProt P21802)
T15 construct: purchased Ambit (DiscoverX) KINOMEscan; Cerep
Procedure, shortened: as §1

TNIK = molecular target: T16, TNIK (Homo sapiens, UniProt Q9UKE5)
T16 construct: purchased Ambit (DiscoverX) KINOMEscan; Cerep
Procedure, shortened: as §1

MAK = molecular target: T17, MAK (Homo sapiens, UniProt P20794)
T17 construct: purchased Ambit (DiscoverX) KINOMEscan; Cerep
Procedure, shortened: as §1

FGR = molecular target: T18, FGR (Homo sapiens, UniProt P09769)
T18 construct: purchased Ambit (DiscoverX) KINOMEscan; Cerep
Procedure, shortened: as §1

MAP4K5 = molecular target: T19, MAP4K5 (Homo sapiens, UniProt Q9Y4K4)
T19 construct: purchased Ambit (DiscoverX) KINOMEscan; Cerep
Procedure, shortened: as §1

FLT3(K663Q) = molecular target: T20, FLT3(K663Q) (Homo sapiens, UniProt P36888, K663Q)
T20 construct: purchased Ambit (DiscoverX) KINOMEscan; Cerep
Procedure, shortened: as §1

MAP4K4 = molecular target: T21, MAP4K4 (Homo sapiens, UniProt O95819)
T21 construct: purchased Ambit (DiscoverX) KINOMEscan; Cerep
Procedure, shortened: as §1

LCK = molecular target: T22, LCK (Homo sapiens, UniProt P06239)
T22 construct: purchased Ambit (DiscoverX) KINOMEscan; Cerep
Procedure, shortened: as §1

MST1R = molecular target: T23, MST1R (Homo sapiens, UniProt Q04912)
T23 construct: purchased Ambit (DiscoverX) KINOMEscan; Cerep
Procedure, shortened: as §1

HIPK2 = molecular target: T24, HIPK2 (Homo sapiens, UniProt Q9H2X6)
T24 construct: purchased Ambit (DiscoverX) KINOMEscan; Cerep
Procedure, shortened: as §1

PKAC-beta = molecular target: T25, PKAC-beta (Homo sapiens, UniProt P22694)
T25 construct: purchased Ambit (DiscoverX) KINOMEscan; Cerep
Procedure, shortened: as §1

TRKc = molecular target: T26, TRKc (Homo sapiens, UniProt Q16288)
T26 construct: purchased Ambit (DiscoverX) KINOMEscan; Cerep
Procedure, shortened: as §1

DDR1 = molecular target: T27, DDR1 (Homo sapiens, UniProt Q08345)
T27 construct: purchased Ambit (DiscoverX) KINOMEscan; Cerep
Procedure, shortened: as §1

FLT3(D835Y) = molecular target: T28, FLT3(D835Y) (Homo sapiens, UniProt P36888, D835Y)
T28 construct: purchased Ambit (DiscoverX) KINOMEscan; Cerep
Procedure, shortened: as §1

ABL1(F317L) = molecular target: T29, ABL1(F317L) (Homo sapiens, UniProt P00519, F317L)
T29 construct: purchased Ambit (DiscoverX) KINOMEscan; Cerep
Procedure, shortened: as §1

EPHB3 = molecular target: T30, EPHB3 (Homo sapiens, UniProt P54753)
T30 construct: purchased Ambit (DiscoverX) KINOMEscan; Cerep
Procedure, shortened: as §1

CAMKK1 = molecular target: T31, CAMKK1 (Homo sapiens, UniProt Q8N5S9)
T31 construct: purchased Ambit (DiscoverX) KINOMEscan; Cerep
Procedure, shortened: as §1

[1] = molecular target: T32, JAK2(JH1domain-catalytic) (Homo sapiens, UniProt O60674)
T32 construct: JAK2(JH1domain-catalytic); purchased Ambit (DiscoverX) KINOMEscan; Cerep
Procedure, shortened: as §1

PIK3CA(H1047L) = molecular target: T33, PIK3CA(H1047L) (Homo sapiens, UniProt P42336, H1047L)
T33 construct: purchased Ambit (DiscoverX) KINOMEscan; Cerep
Procedure, shortened: as §1

T19 sequence (Q9Y4K4 whole entry): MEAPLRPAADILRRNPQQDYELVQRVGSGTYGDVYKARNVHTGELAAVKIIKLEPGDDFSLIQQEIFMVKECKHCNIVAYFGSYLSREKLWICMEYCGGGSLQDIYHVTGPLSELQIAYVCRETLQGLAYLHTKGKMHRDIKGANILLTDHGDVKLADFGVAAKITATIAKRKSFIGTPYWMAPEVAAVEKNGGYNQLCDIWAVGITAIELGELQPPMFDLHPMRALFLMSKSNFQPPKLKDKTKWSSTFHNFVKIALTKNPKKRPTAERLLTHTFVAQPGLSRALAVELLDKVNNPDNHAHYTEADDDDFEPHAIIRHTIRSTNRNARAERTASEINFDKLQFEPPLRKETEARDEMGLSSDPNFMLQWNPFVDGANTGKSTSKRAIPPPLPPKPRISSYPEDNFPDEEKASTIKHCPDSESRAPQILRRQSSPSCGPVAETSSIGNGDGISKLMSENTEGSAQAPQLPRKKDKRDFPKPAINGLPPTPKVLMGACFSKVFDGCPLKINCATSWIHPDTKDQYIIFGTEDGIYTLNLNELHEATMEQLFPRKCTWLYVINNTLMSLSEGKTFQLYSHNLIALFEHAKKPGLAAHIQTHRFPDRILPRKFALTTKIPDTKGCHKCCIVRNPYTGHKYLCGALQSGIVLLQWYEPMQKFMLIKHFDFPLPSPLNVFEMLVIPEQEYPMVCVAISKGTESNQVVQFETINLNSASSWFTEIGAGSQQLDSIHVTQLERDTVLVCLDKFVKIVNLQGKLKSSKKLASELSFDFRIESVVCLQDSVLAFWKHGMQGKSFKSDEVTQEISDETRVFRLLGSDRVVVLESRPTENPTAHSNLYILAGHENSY
T14 sequence (P68400 whole entry): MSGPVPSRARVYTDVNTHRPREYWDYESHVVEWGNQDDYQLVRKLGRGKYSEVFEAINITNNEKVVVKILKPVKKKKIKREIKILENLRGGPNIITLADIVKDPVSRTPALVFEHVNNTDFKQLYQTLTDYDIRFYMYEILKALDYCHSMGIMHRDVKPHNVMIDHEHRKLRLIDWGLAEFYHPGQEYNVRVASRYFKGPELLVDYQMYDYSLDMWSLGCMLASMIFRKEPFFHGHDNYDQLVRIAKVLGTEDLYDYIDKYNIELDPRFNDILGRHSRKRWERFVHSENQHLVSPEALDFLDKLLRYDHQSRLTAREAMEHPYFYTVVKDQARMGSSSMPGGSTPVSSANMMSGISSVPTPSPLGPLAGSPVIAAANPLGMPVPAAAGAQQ
T16 sequence (Q9UKE5 whole entry): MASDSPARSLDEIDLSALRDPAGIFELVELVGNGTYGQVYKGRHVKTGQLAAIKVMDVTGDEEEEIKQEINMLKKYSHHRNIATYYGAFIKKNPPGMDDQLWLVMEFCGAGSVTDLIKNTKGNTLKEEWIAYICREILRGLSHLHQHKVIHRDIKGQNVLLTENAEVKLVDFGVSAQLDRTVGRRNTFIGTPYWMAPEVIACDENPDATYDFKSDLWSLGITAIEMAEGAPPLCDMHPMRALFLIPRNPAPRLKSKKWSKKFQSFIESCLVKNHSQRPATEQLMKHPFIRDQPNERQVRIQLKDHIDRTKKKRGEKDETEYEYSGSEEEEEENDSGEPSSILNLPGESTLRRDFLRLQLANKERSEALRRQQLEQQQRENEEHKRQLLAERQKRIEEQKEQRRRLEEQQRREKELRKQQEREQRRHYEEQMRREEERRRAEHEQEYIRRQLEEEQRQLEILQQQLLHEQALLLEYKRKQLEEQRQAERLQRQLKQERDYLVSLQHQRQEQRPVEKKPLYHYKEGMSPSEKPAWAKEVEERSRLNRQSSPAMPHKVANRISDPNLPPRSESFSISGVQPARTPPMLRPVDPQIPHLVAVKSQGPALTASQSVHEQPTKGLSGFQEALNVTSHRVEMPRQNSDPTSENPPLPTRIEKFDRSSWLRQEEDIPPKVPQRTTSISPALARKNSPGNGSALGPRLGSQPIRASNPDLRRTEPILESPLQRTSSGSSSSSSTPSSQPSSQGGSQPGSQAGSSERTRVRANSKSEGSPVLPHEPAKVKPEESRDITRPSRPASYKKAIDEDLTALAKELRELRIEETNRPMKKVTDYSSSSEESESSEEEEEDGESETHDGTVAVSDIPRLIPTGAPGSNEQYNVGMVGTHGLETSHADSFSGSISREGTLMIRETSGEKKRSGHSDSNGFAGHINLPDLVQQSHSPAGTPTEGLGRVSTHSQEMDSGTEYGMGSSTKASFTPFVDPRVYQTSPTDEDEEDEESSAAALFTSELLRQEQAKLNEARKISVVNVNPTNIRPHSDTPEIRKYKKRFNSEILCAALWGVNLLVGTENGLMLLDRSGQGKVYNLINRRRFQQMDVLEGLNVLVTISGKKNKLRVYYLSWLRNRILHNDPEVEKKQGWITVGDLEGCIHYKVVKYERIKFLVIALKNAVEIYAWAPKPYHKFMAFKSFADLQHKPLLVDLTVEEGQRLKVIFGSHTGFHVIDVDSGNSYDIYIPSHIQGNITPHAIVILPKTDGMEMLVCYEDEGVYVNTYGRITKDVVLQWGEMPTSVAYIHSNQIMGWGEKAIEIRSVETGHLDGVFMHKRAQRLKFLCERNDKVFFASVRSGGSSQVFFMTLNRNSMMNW
T23 sequence (Q04912 25-1400): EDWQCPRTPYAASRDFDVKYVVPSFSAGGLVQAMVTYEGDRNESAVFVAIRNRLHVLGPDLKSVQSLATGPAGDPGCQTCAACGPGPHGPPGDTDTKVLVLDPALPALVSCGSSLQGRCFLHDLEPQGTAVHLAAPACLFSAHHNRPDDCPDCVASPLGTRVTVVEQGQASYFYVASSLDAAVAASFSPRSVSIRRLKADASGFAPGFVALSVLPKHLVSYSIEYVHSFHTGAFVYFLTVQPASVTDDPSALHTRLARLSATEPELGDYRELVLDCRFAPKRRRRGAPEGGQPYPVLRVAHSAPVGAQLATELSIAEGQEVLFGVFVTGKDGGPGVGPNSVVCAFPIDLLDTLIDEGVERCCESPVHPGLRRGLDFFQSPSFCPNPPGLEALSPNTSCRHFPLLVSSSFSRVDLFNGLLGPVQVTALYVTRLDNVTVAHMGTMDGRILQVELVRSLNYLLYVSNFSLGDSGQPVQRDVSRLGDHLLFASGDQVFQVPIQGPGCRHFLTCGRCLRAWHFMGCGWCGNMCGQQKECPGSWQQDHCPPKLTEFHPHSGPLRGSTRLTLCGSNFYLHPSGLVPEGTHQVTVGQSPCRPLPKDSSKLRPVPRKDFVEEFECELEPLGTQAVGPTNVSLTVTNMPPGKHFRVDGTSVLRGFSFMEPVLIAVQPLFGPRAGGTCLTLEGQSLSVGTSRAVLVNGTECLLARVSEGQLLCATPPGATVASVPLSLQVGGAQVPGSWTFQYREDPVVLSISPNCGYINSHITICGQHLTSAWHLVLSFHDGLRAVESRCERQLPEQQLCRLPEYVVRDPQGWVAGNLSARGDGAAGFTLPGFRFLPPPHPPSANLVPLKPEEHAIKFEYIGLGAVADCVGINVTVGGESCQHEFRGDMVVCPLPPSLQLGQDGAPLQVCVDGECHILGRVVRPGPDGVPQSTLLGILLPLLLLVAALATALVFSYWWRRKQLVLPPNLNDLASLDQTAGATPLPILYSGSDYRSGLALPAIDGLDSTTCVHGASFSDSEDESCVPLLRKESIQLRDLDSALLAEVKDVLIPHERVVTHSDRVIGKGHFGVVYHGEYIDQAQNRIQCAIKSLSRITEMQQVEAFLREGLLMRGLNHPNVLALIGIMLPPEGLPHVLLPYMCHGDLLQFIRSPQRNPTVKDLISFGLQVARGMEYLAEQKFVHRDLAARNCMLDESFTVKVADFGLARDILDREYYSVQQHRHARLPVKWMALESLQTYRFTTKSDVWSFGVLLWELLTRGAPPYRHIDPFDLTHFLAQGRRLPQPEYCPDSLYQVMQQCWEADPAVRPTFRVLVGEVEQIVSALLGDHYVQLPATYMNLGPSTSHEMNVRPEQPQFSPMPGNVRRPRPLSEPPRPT
T9 sequence (O14730 whole entry): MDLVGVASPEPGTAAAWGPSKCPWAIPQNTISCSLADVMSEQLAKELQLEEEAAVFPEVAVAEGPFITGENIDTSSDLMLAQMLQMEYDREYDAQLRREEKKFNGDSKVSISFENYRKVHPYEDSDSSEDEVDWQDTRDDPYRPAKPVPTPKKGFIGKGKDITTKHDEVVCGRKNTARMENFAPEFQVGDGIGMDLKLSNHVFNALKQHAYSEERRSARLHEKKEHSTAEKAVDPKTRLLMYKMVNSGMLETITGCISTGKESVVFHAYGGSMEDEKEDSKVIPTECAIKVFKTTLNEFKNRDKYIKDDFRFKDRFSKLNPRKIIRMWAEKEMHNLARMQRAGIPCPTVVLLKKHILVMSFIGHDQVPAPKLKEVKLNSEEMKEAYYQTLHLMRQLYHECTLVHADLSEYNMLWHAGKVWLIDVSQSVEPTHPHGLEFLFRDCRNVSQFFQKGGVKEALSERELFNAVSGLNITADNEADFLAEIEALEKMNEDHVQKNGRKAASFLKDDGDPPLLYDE
T5 sequence (Q96Q40 whole entry): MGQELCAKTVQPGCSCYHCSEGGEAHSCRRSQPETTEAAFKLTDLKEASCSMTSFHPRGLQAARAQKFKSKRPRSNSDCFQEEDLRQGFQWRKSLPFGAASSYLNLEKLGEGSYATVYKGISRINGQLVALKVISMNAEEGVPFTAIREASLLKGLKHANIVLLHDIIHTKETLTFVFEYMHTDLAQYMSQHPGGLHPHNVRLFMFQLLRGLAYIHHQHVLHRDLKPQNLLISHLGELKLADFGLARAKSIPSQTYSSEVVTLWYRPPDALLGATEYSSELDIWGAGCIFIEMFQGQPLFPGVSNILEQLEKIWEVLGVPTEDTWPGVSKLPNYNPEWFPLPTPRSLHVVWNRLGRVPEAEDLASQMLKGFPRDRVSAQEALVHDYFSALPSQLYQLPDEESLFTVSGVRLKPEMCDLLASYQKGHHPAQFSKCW

CCCCN1CCN(C(=N)c2cccc(NC(=O)Nc3ccc(S(=O)(=O)NCc4ccc(S(N)(=O)=O)cc4)cc3)c2)CC1 [SC81458, 4-(3-(3-((4-butylpiperazin-1-yl)(imino)methyl)phenyl)ureido)-N-(4-sulfamoylbenzyl) benzenesulfonamide]
remaining binding at 10 µM (KIT(V559D)): 100% | remaining binding at 10 µM (ABL1(E255K)): 100% | remaining binding at 10 µM (SBK1): 72% | remaining binding at 10 µM (PRKD2): 97% | remaining binding at 10 µM (PFTAIRE2): 100% | remaining binding at 10 µM (JNK1): 98% | remaining binding at 10 µM (CLK2): 100% | remaining binding at 10 µM (DCAMKL3): 62% | remaining binding at 10 µM (RIOK3): 77% | remaining binding at 10 µM (CAMK4): 51% | remaining binding at 10 µM (MAST1): 46% | remaining binding at 10 µM (STK36): 100% | remaining binding at 10 µM (AAK1): 100% | remaining binding at 10 µM (CSNK2a1): 62% | remaining binding at 10 µM (FGFR2): 100% | remaining binding at 10 µM (TNIK): 100% | remaining binding at 10 µM (MAK): 91% | remaining binding at 10 µM (FGR): 100% | remaining binding at 10 µM (MAP4K5): 100% | remaining binding at 10 µM (FLT3(K663Q)): 93% | remaining binding at 10 µM (MAP4K4): 100% | remaining binding at 10 µM (LCK): 100% | remaining binding at 10 µM (MST1R): 91% | remaining binding at 10 µM (HIPK2): 100% | remaining binding at 10 µM (PKAC-beta): 78% | remaining binding at 10 µM (TRKc): 100% | remaining binding at 10 µM (DDR1): 91% | remaining binding at 10 µM (FLT3(D835Y)): 89% | remaining binding at 10 µM (ABL1(F317L)): 100% | remaining binding at 10 µM (EPHB3): 98% | remaining binding at 10 µM (CAMKK1): 93% | remaining binding at 10 µM [1]: 100% | remaining binding at 10 µM (PIK3CA(H1047L)): 100%
